Measured values taken from US20160045531A1, “COMBINATION THERAPY FOR TREATING CANCER” (EPIZYME, INC., priority 2014, published 2016).

Experiments:
[1] = test system: MV4-11 (MLL-AF4) cell line; experiment: Combination proliferation study with Compound A2 (Example 1), MV4-11; assay type: cell-based, human; details: 7 Day Cotreatment; Chou-Talalay CI
Excerpt: (§1) The acute myelogenous leukemia cell lines MV4-11 (MLL-AF4) and MOLM-13 (MLL-AF9) were obtained from American Type Culture Collection (ATCC; Rockville, Md.) and Deutsche Sammlung von Mikroorganismen and Zellkulturen (DSMZ; Braunschweig, Germany) respectively. […] Further, strong synergism is achieved when the CI value falls below 0.3.

MOLM-13 (MLL-AF9) = experiment: Proliferation assay and calculation of synergism (Example 5), MOLM-13; assay type: cell-based, human; details: for Combination with Compound A2, MOLM-13 (MLL-AF9): 7 Day Cotreatment Model, Chou-Talalay CI; for Combination with Compound A2, pre-treatment model with washout, MOLM-13: Compound A2 washed out prior to the addition of the SOC agent; for Combination with Compound A2, pre-treatment model, MOLM-13: no Compound A2 washout
Method: (§5) MV4-11 cells were maintained in IMDM supplemented with 10% fetal bovine serum. […] They were cultured in flasks or plates in a humidified 5% CO2 atmosphere.
(§6) Proliferation studies were performed using MOLM-13, MV4-11 and SKM-1 cell lines in vitro to evaluate the cancer cell killing effect of a combination of two agents together on cell growth. Initial proliferation studies were performed to determine the IC50 values of a given compound in each cell line. The cell counts were measured by ATP quantitation using the Promega Cell Titer Glo kit and luminescence values correspond to the amount of ATP in a given well.
(§7) These studies were performed to evaluate both the combinatorial effect of compounds on cell killing and the durability of the effect by washing out one of the agents.
(§8) Compounds evaluated for synergy in the co-treatment phase were tested in a range which was bracketed around the IC50's. The compounds were plated to a 96 well plate in a matrix format which includes increasing concentrations of each drug in the combination in a constant ratio, in addition to the effect of each compound alone in the study. […] Maximum and minimum inhibition (DMSO alone) controls were used in each plate to calculate fraction affected (Fa) of a test well. DMSO concentration was kept at 0.1% v/v. The drug combination analysis was performed utilizing the Chou-Talalay method. Synergy was determined using the software package Calcusyn by Biosoft. The combination index (CI) is the term used to describe the level of synergy or antagonism in a given test system. A combination index less than one indicates synergy, and a CI greater than one indicates antagonism.
(§9) The drug combination analysis was performed using the Chou-Talalay method. Graphs representing values of combination index (CI) versus Fractional effect (Fa) known as Fa-CI plots were generated and synergy was evaluated. Drug synergy was statistically defined by CI values less than 1, antagonism by CI>1 and additive effect by CI equal to 1.

MV4-11 (MLL-AF4) = experiment: Proliferation assay and calculation of synergism (Example 5), MV4-11; assay type: cell-based, human; details: for Combination with Compound A2, MV4-11 (MLL-AF4): 7 Day Cotreatment Model, Chou-Talalay CI; for Combination with Compound A2, pre-treatment model with washout, MV4-11: Compound A2 washed out prior to the addition of the SOC agent; for Combination with Compound A2, pre-treatment model, MV4-11: no Compound A2 washout
Method: as §5, §6, §7, §8, §9

SKM-1 cells = experiment: Proliferation assay and calculation of synergism (Example 5), SKM-1; details: combination with Compound A2
Excerpt: The acute myelogenous leukemia cell line MV4-11 (MLL-AF4) (CRL-9591) was obtained from American Type Culture Collection (ATCC), Manassas, Va. and both MOLM-13 (MLL-AF9) (ACC 554) and SKM-1 (ACC 547) cells were obtained from Leibniz Institute DSMZ-German Collection of Microorganisms and Cell Cultures, Braunschweig, Germany. MV4-11 cells were maintained in IMDM supplemented with 10% fetal bovine serum. MOLM-13 and SKM-1 cells were maintained in Roswell Park Memorial Institute medium (RPMI) supplemented with 10% fetal bovine serum. They were cultured in flasks or plates in a humidified 5% CO2 atmosphere.
as §6, §7, §8, §9

[2] = test system: MOLM-13 (MLL-AF9) cell line; experiment: Combination proliferation study with Compound A2 (Example 1), MOLM-13; assay type: cell-based, human; details: 7 Day Cotreatment; Chou-Talalay CI
Excerpt: as §1

[3] = test system: MV4-11 (MLL-AF4 expressing acute biphenotypic leukemia cell line); experiment: Combination proliferation study with Compound A2 (Examples 2/3), MV4-11; assay type: cell-based, human; details: in combination with Compound A2; Chou-Talalay CI
Method: (§2) The HP-D300 digital dispenser (Tecan) was used to dispense compounds in a combinatorial matrix. […] Cell viability was measured via ATP content using CellTiter-Glo® (Promega).
(§3) Viability was determined using CellTiter-Glo® (Promega).

[4] = test system: Molm-13 (MLL-AF9 expressing acute myeloid leukemia); experiment: Combination proliferation study with Compound A2 (Examples 2/3), MOLM-13; assay type: cell-based, human; details: for Combination studies with Compound A2, MOLM-13 MLL-AF9: in combination with Compound A2, Chou-Talalay CI
Method: as §2, §3

[5] = test system: SKM-1 (non-MLL-rearranged AML); experiment: Combination proliferation study with Compound A2 (Examples 2/3), SKM-1; assay type: cell-based, human; details: in combination with Compound A2
Method: as §2, §3

MOLM-13 cells [6] = experiment: Flow cytometric analysis of cell cycle and Annexin V, MOLM-13; assay type: cell-based, human; details: MOLM-13
Method: (§4) On Day 0 MOLM-13 cells are seeded at 3,000 cells/mL. On Day 7 and Day 10 MOLM-13 cells are counted and reseeded at 50,000 cells/mL. […] On Day 10 They were redosed again. On Day 14 the experiment was terminated.
To evaluate the fraction of cells in each cell cycle, flow cytometric analysis was performed. FACS analysis for detection of cell death by apoptosis, and cell cycle was performed.
Samples were analyzed using the Guava EasyCyte Plus System (Millipore). Cells for cell cycle analysis were pelleted by centrifugation at 200×g for 5 minutes at 4° C., washed twice with ice cold PBS then fixed with 70% ice cold ethanol. All samples were analyzed together at end of experiment. Following fixation cells were washed with PBS and stained with the Guava cell cycle reagent (Millipore 4500-0220) for 30 minutes. Samples were analyzed using the Guava EasyCyte Plus System (Millipore).

MOLM-13 cells [7] = experiment: CD11b and CD14 expression by flow cytometry, MOLM-13; assay type: cell-based, human
Method: as §4
The cells were prepared by washing twice in PBS, followed by fixation in 4% formaldehyde for ten minutes at 37° C. After fixation cells were washed and blocked with blocking buffer for 10 minutes at room temperature. Cells were then incubated in presence of anti-CD14, anti-CD11b or anti-IgG antibody for 1 hour at room temperature while rotating. Cells were washed, re-suspended in PBS and 5,000 events were analyzed using ExpressPro software on the GuavaCyte Plus System.

MOLM-13 cells [8] = experiment: Pre-treatment model with reverse order of addition (Ara-C first), MOLM-13; assay type: cell-based, human; details: Ara-C 3 days
Method: MOLM-13 cells were pretreated with 9 concentrations of Ara-C or DMSO for 3 days.
Cell viability was measured via ATP content using CellTiter-Glo® (Promega).
In addition, the effect of sequence of addition of compounds was studied by measuring the ten day proliferation of cells pretreated with Ara-C in a 3+7 model. This experiment was performed by first pretreating MOLM-13 cells with increasing concentrations of Ara-C for 3 days.

| Structure (SMILES) | Combination effect with Compound A2 on proliferation, MV4-11 [1] | Combination with Compound A2, MOLM-13 (MLL-AF9) (MOLM-13 (MLL-AF9)) | Combination with Compound A2, MV4-11 (MLL-AF4) (MV4-11 (MLL-AF4)) | Combination studies with Compound A2, SKM-1 AML: Non-rearranged [5] | further results |
| --- | --- | --- | --- | --- | --- |
| O=C1c2c(O)ccc(O)c2C(=O)c2c(NCCNCCO)ccc(NCCNCCO)c21 [Mitoxantrone] | Synergy (A combination index less than one indicates synergy) | – | – | – | – |
| Nc1cccc2c1CN(C1CCC(=O)NC1=O)C2=O (stereo not drawn) [Lenalidomide, lenalidomide] | – | Combination Benefit | Combination Benefit | – | – |
| Nc1ncn([C@@H]2O[C@H](CO)[C@@H](O)[C@H]2O)c(=O)n1 [azacytidine, Azacytidine] | – | synergistic anti-proliferative activity | synergistic anti-proliferative activity | – | Effect of Compound A2 on the antiproliferative activity of the second agent in SKM-1 (SKM-1 cells): no impact on the antiproliferative activity |
| CC(C)C[C@H](NC(=O)[C@H](Cc1ccccc1)NC(=O)c1cnccn1)B(O)O [Velcade, bortezomib] | – | Combination Benefit | Combination Benefit | – | – |
| CN(Cc1cnc2nc(N)nc(N)c2n1)c1ccc(C(=O)N[C@@H](CCC(=O)O)C(=O)O)cc1 [Methotrexate, methotrexate] | – | Antagonistic/Additive | Additive (additive effect by CI equal to 1) | – | – |
| CC1(C)CCC(c2ccc(Cl)cc2)=C(CN2CCN(c3ccc(C(=O)NS(=O)(=O)c4ccc(N[C@H](CCN5CCOCC5)CSc5ccccc5)c(S(=O)(=O)C(F)(F)F)c4)cc3)CC2)C1 [Navitoclax] | synergy | – | – | – | Combination effect with Compound A2 on proliferation, MOLM-13 [2]: synergy |
| Nc1ncn([C@@H]2O[C@H](CO)[C@@H](O)[C@H]2O)c(=O)n1 [Vidaza] | Synergy (A combination index less than one indicates synergy) | – | – | – | – |
| COc1cccc2c1C(=O)c1c(O)c3c(c(O)c1C2=O)C[C@@](O)(C(C)=O)C[C@@H]3O[C@H]1C[C@H](N)[C@H](O)[C@H](C)O1 [Daunorubicin, daunorubicin] | Synergy (A combination index less than one indicates synergy) | – | – | No Combination | Effect of Compound A2 on the antiproliferative activity of the second agent in SKM-1 (SKM-1 cells): did not affect the antiproliferative activity; Combination with Compound A2, pre-treatment model with washout, MOLM-13 (MOLM-13 (MLL-AF9)): synergistic anti-proliferative activity was maintained; Combination with Compound A2, pre-treatment model, MOLM-13 (MOLM-13 (MLL-AF9)): synergistic antiproliferative activity; Combination studies with Compound A2, MV4-11 MLL-AF4 [3]: acts synergistically; Combination studies with Compound A2, MOLM-13 MLL-AF9 [4]: acts synergistically; Combination with Compound A2, pre-treatment model with washout, MV4-11 (MV4-11 (MLL-AF4)): synergistic anti-proliferative activity was maintained; Combination with Compound A2, pre-treatment model, MV4-11 (MV4-11 (MLL-AF4)): synergistic antiproliferative activity; Combination studies with Compound A2, SKM-1 AML: Non-rearranged ([5]; listed as daunorubicin): did not act synergistically |
| C[C@]12C=CC(=O)C=C1CC[C@@H]1[C@@H]2[C@@H](O)C[C@@]2(C)[C@H]1CC[C@]2(O)C(=O)CO [Prednisolone, prednisolone] | – | Antagonistic (antagonism by CI>1) | Antagonistic (antagonism by CI>1) | – | – |
| Nc1ncn([C@H]2C[C@H](O)[C@@H](CO)O2)c(=O)n1 [Decitabine, decitabine] | – | – | – | No Combination | – |
| N[C@@H]1C[C@H]1c1ccccc1 (racemic) [Tranylcypromine] | synergy | – | – | – | Combination effect with Compound A2 on proliferation, MOLM-13 [2]: synergy |
| Cc1[nH]c2ccccc2c1CCNCc1ccc(/C=C/C(=O)NO)cc1 [Panobinostat] | – | – | Antagonistic (antagonism by CI>1) | – | – |
| Cc1sc2c(c1C)C(c1ccc(Cl)cc1)=N[C@@H](CC(=O)OC(C)(C)C)c1nnc(C)n1-2 [JQ1] | – | Additive (additive effect by CI equal to 1) | Additive (additive effect by CI equal to 1) | – | – |
| Nc1ncn([C@@H]2O[C@H](CO)[C@@H](O)[C@H]2O)c(=O)n1 [Azacitidine, azacitidine] | – | – | – | No Combination | – |
| CC(C)(C)c1cc(NC(=O)Nc2ccc(-c3cn4c(n3)sc3cc(OCCN5CCOCC5)ccc34)cc2)no1 [Quizartinib] | synergy | – | – | – | – |
| Nc1ccn([C@@H]2O[C@H](CO)[C@@H](O)[C@@H]2O)c(=O)n1 [cytarabine] | – | – | – | did not act synergistically | Effect of Compound A2 on the antiproliferative activity of the second agent in SKM-1 (SKM-1 cells): did not affect the antiproliferative activity; Combination with Compound A2, pre-treatment model with washout, MOLM-13 (MOLM-13 (MLL-AF9)): synergistic anti-proliferative activity was maintained; Combination with Compound A2, pre-treatment model, MOLM-13 (MOLM-13 (MLL-AF9)): synergistic antiproliferative activity; Combination studies with Compound A2, MV4-11 MLL-AF4 [3]: acts synergistically; Combination with Compound A2, Compound A2 removed at day 7 ([4]; Molm-13, Compound A2 removed at day 7 prior to cytarabine): durable combination benefit; Combination studies with Compound A2, MOLM-13 MLL-AF9 [4]: acts synergistically; Combination with Compound A2, pre-treatment model with washout, MV4-11 (MV4-11 (MLL-AF4)): synergistic anti-proliferative activity was maintained; Combination with Compound A2, pre-treatment model, MV4-11 (MV4-11 (MLL-AF4)): synergistic antiproliferative activity |
| O=C(CCCCCCC(=O)Nc1ccccc1)NO [Vorinostat] | – | Additive/Synergy | Antagonistic (antagonism by CI>1) | – | – |
| CC[C@]1(O)C[C@H]2CN(CCc3c([nH]c4ccccc34)[C@@](C(=O)OC)(c3cc4c(cc3OC)N(C=O)[C@H]3[C@@](O)(C(=O)OC)[C@H](OC(C)=O)[C@]5(CC)C=CCN6CC[C@]43[C@@H]65)C2)C1 [Vincristine, vincristine] | – | Additive (additive effect by CI equal to 1) | Additive (additive effect by CI equal to 1) | – | – |
| COc1cc2c(cc1-c1c(C)noc1C)ncc1[nH]c(=O)n([C@H](C)c3ccccn3)c12 [IBET-151] | Synergy (A combination index less than one indicates synergy) | – | – | IC50 not achieved | – |
| Nc1ccn([C@@H]2O[C@H](CO)[C@@H](O)[C@@H]2O)c(=O)n1 [Ara-C, cytarabine] | Synergy (A combination index less than one indicates synergy) | – | Strong Synergy | No Combination | Apoptosis induction over 14 day course, single agent (MOLM-13 cells [6]; 156 nM Compound A2 or 63 nM Ara-C): modest increase in apoptotic cell population; Apoptosis induction over 14 day course, combination with Compound A2 (MOLM-13 cells [6]; 156 nM Compound A2 plus 63 nM Ara-C): enhance apoptosis; Sub-G1 cell population, combination with Compound A2 (MOLM-13 cells [6]; 156 nM Compound A2 plus 63 nM Ara-C, 10 and 14 days): significant increase in the population of sub-G1 cells; Sub-G1 cell population, single agent (MOLM-13 cells [6]; 14 day treatment, 156 nM Compound A2 or 63 nM Ara-C): minimal effect; Combination studies with Compound A2, MV4-11 MLL-AF4 [3]: Strong; Differentiation markers CD11b and CD14, combination with Compound A2 (MOLM-13 cells [7]): time and concentration dependent up-regulation; Differentiation markers CD11b and CD14, single agent (MOLM-13 cells [7]): time and concentration dependent up-regulation; Combination with Compound A2, Ara-C pretreatment then cotreatment (MOLM-13 cells [8]; then Compound A2 and Ara-C 7 days): Synergy; Combination with Compound A2, Ara-C pretreatment then washout (MOLM-13 cells [8]; washed out, then Compound A2 7 days): Combination benefit is maintained |
